“And” between values parts separate entries of the source, which are not always exact repeats. Equal values may be shown once. Read-outs that look alike come from different tables or passages of the source.
Columns and labels:
DENV-2/16681/eGFP = assay: microbe, parasite or virus in culture; assay type: cell-based; details: Dengue virus
DENV-1 G4 Indonesia = assay: DENV genotype panel RT-qPCR, Vero E6; assay type: cell-based; details: Dengue virus, DENV1, Vero C1008
Experimental: (§1) A total of 20 DENV strains, representing the available genotypes within the four DENV serotypes, were used in the in vitro genotype panel, from which 19 viruses were described previously in ref. [3] and one additional virus, DENV-1/45AZ5 (ref. [54]), was added.
(§2) A potential toxic effect on host cells was tested in parallel, while omitting virus infection, using the MTS/PMS method (Promega) for Vero cells, or by high-content imaging for C6/36 cells, as described previously. […] RT–qPCR data were analysed using the QuantStudio 12K Flex software (v.1.2.3) or SDS v.1.2 Applied Biosystems software. Inhibition values for antiviral molecules were plotted using KaleidaGraph plotting software (v.4.03, Synergy Software).

[1] = system: DENV-1 G5 France - Toulon; assay: DENV genotype panel RT-qPCR, Vero E6; assay type: cell-based; details: Dengue virus, DENV1, Vero C1008
Experimental: as §1, §2

DENV-2 Sylvatic Malaysia = assay: DENV genotype panel RT-qPCR, Vero E6; assay type: cell-based; details: Dengue virus, DENV2, Vero C1008
Experimental: as §1, §2

WNV R94224 = assay: microbe, parasite or virus in culture; assay type: cell-based; details: West Nile virus
JEV CNS769-Laos 2009 = assay: microbe, parasite or virus in culture; assay type: cell-based; details: Japanese encephalitis virus, Vero C1008
RSV rgRSV224 = assay: microbe, parasite or virus in culture; assay type: cell-based; details: human respiratory syncytial virus, HeLa
INF-A Taiwan/1/86 = assay: microbe, parasite or virus in culture; assay type: cell-based; details: Influenza A virus, MDCK
VACV Western reserve 56 = assay: microbe, parasite or virus in culture; assay type: cell-based; details: Orthopoxvirus vaccinia, Vero C1008; VeroE6
HCV Genotype 1b replicon = assay: microbe, parasite or virus in culture; assay type: cell-based; details: Hepatitis C virus
[2] = system: subgenomic DENV-2/16681 reporter replicon (WT or NS4B mutants); assay: microbe, parasite or virus in culture; assay type: cell-based; details: for FC: fold change of EC50 vs WT
DENV-2 RL strain = assay: Delayed-treatment study (therapeutic setting); assay type: in vivo, AG129 mice; details: 30 mg/kg/day, individual mice
[3] = start treatment day 0 p.i., blood sampling day 3 p.i.
[4] = start treatment day 0 p.i., blood sampling day 4 p.i.
[5] = start treatment day 0 p.i., blood sampling day 5 p.i.
[6] = start treatment day 0 p.i., blood sampling day 6 p.i.
[7] = start treatment day 0 p.i., blood sampling day 7 p.i.
[8] = start treatment day 0 p.i., blood sampling day 8 p.i.
[9] = start treatment day 0 p.i., blood sampling day 9 p.i.
[10] = start treatment day 4 p.i., blood sampling day 3 p.i.
[11] = start treatment day 4 p.i., blood sampling day 4 p.i.

COc1cc(N[C@H](C(=O)c2c[nH]c3ccc(OC(F)(F)F)cc23)c2ccc(Cl)cc2OC)cc(S(C)(=O)=O)c1 [JNJ-1802]
EC90 (DENV-2/16681/eGFP; DENV2, Huh-7, Huh-7, read-out: EC90): 0.53 ± 0.31 nM
EC90 (DENV-2/16681/eGFP; DENV2, Huh-7, read-out: EC90 Mean): 0.533 nM
EC90 (DENV-1 G4 Indonesia): 0.8 ± 0.31 nM
EC50 (DENV-1 G4 Indonesia; two of four values below threshold): < 0.19 nM
EC90 [1]: 1.02 ± 0.68 nM
EC50 ([1]; one of three values below threshold): < 0.23 nM
EC50 (DENV-2 Sylvatic Malaysia): 0.0634 ± 0.0022 nM
EC90 (DENV-2 Sylvatic Malaysia): 0.265 ± 0.029 nM
EC50 (WNV R94224; Vero C1008): 250 nM
EC50 (WNV R94224; Vero C1008, read-out: mean EC50, range): 250 to 1100 nM
EC50 (JEV CNS769-Laos 2009): 590 nM
EC50 (RSV rgRSV224; read-out: EC50, Mean): 3180 nM
EC90 (RSV rgRSV224; read-out: EC90, Mean): 5460 nM
EC50 (INF-A Taiwan/1/86): > 2600 nM
EC50 (INF-A Taiwan/1/86; read-out: EC50, Mean): > 25000 nM
EC90 (INF-A Taiwan/1/86; read-out: EC90, Mean): > 25000 nM
EC50 (VACV Western reserve 56): 8900 nM
EC50 (HCV Genotype 1b replicon): 5500 nM
EC50 (HCV Genotype 1b replicon; read-out: EC50, Mean): 5450 nM
EC90 (HCV Genotype 1b replicon; read-out: EC90, Mean): 20300 nM
EC50 ([2]; Dengue virus, DENV2, NS4B L94F_V91A_T108I replicon SDM210002): 2380 nM
EC50 ([2]; NS4B A222S replicon SDM200008, read-out: EC50): 0.35 nM
EC50 ([2]; NS4B F237Y replicon SDM140022, Huh7 transient, listed as 64281802-AAA, read-out: EC50): 7.9 nM and 11 nM and 9.2 nM
EC50 ([2]; NS4B L94F_V91A_T108I replicon SDM210002, listed as 64281802-AAA): 2350 nM and 2290 nM
EC50 ([2]; NS4B V91A replicon SDM140014, Huh7 transient, listed as 64281802-AAA, read-out: EC50): 40 nM and 47 nM and 58 nM and 50 nM
EC50 ([2]; NS4B V219A replicon SDM200007, listed as 64281802-AAA, read-out: EC50): 0.6 nM and 0.52 nM and 0.63 nM and 0.92 nM and 0.78 nM
EC50 ([2]; WT replicon pFK-sgDVs-R2A-SDM120005, Huh7 transient): 0.33 nM
FC ([2]; NS4B A222S, listed as 64281802-AAA): 1.1 and 1.2 and 0.9 and 1.3 and 1.4
FC ([2]; NS4B F237Y, listed as 64281802-AAA): 46.0 and 32.0 and 23.0
FC ([2]; NS4B L94F_V91A_T108I, listed as 64281802-AAA): 3872.3 and 4594.9 and 4248.1
FC ([2]; NS4B M183T, listed as 64281802-AAA): 1.1 and 1.2 and 1.6 and 1.4
FC ([2]; NS4B S85L, listed as 64281802-AAA): 3.1 and 3.4 and 3.6 and 4.3 and 4.0
FC ([2]; NS4B T195A, listed as 64281802-AAA): 2.9 and 3.2 and 2.4 and 3.7 and 3.5
FC ([2]; NS4B V91A, listed as 64281802-AAA): 232.0 and 190.0 and 127.0 and 176.0
FC ([2]; NS4B V219A, listed as 64281802-AAA): 1.8 and 1.9 and 1.5 and 1.4
Viral Load Copies/ml (DENV-2 RL strain; [3]): 1.31E+03 Copies/ml and 3.02E+03 Copies/ml
Viral Load Log10 (DENV-2 RL strain; [3]): 3.1316 Log10 and 3.1169 Log10 and 3.4801 Log10
Viral Load Copies/ml (DENV-2 RL strain; [4]): 1.31E+04 Copies/ml and 1.96E+04 Copies/ml and 3.27E+03 Copies/ml and 2.07E+03 Copies/ml
Viral Load Log10 (DENV-2 RL strain; [4]): 4.1169 Log10 and 4.2930 Log10 and 3.5148 Log10 and 3.3153 Log10
Viral Load Copies/ml (DENV-2 RL strain; [5]): 4.36E+03 Copies/ml and 3.27E+03 Copies/ml and 3.93E+03 Copies/ml
Viral Load Log10 (DENV-2 RL strain; [5]): 3.6398 Log10 and 3.5148 Log10 and 3.5940 Log10
Viral Load Copies/ml (DENV-2 RL strain; [6]): 1.31E+03 Copies/ml and 2.07E+03 Copies/ml and 5.61E+03 Copies/ml
Viral Load Log10 (DENV-2 RL strain; [6]): 3.1169 Log10 and 3.3153 Log10 and 3.7489 Log10
Viral Load Copies/ml (DENV-2 RL strain; [7]): 1.57E+03 Copies/ml and 1.64E+03 Copies/ml and 6.54E+03 Copies/ml and 9.82E+03 Copies/ml
Viral Load Log10 (DENV-2 RL strain; [7]): 3.8159 Log10 and 3.9919 Log10
Viral Load Copies/ml (DENV-2 RL strain; [8]): 6.54E+03 Copies/ml and 1.96E+04 Copies/ml and 3.27E+03 Copies/ml
Viral Load Log10 (DENV-2 RL strain; [8]): 3.8159 Log10 and 4.2930 Log10 and 3.5148 Log10
Viral Load Copies/ml (DENV-2 RL strain; [9]): 1.31E+03 Copies/ml and 1.64E+03 Copies/ml
Viral Load Log10 (DENV-2 RL strain; [9]): 3.1169 Log10
Viral Load Copies/ml (DENV-2 RL strain; [10]): 1.96E+04 Copies/ml and 8.52E+04 Copies/ml and 2.38E+05 Copies/ml and 1.40E+06 Copies/ml
Viral Load Log10 (DENV-2 RL strain; [10]): 4.2930 Log10 and 4.9304 Log10 and 5.3771 Log10 and 6.1456 Log10
Viral Load Copies/ml (DENV-2 RL strain; [11]): 5.13E+06 Copies/ml and 8.56E+06 Copies/ml and 1.09E+07 Copies/ml and 3.84E+06 Copies/ml
Viral Load Log10 (DENV-2 RL strain; [11]): 6.7101 Log10 and 6.9324 Log10 and 7.0387 Log10 and 6.5839 Log10
Viral Load Copies/ml (DENV-2 RL strain; start treatment day 4 p.i., blood sampling day 5 p.i.): 1.69E+05 Copies/ml and 1.30E+06 Copies/ml and 9.49E+05 Copies/ml and 2.98E+05 Copies/ml

From PMC10033419, “Blocking NS3–NS4B interaction inhibits dengue virus in non-human primates” (Nature, 2023)
